Test results taken from patent US4260630A, “Skin diseases” (priority 1977, dated 1981).
“Also recorded” adds a separate entry of the source.

Key:
[1] = tested on: yeast DNA; experiment: Photobinding to yeast DNA in vivo (radiolabelled drug plus 365 nm light); type: binding, Saccharomyces cerevisiae
Description: (§1) The radioactivity of an aliquot (0.1 ml) of this solution was measured in 5 ml of scintillation mixture (Nuclear Entreprise, Ltd., Edinburgh, Scotland, NE 250).
(§2) For the in vivo determinations stationary phase cells of the haploid wild type strain N 123 were prepared as previously described.
(§3) 2 ml cell suspensions were exposed to several doses of 365 nm light. In parallel, non irradiated samples were incubated for the same periods. Immediately after incubation and/or irradiation, the samples were centrifuged and the pellet was washed 3 times with 5 ml of saline (0.9% NaCl). The washed cell pellet was resuspended in 1 ml of saline and 1 ml of 2 N NaOH was added in order to hydrolyze the RNA. The suspension was incubated overnight in the dark at room temperature, then cooled down on ice, and 2 ml of 50% TCA were added slowly. The samples were left 20 minutes on ice and the precipitated DNA was filtered on a glass fiber filter disc (Whatman GF/A, 2.1 cm diameter). In some cases the filtrate containing the acid-soluble material was kept aside, and the radioactivity of an aliquot added to 5 ml of NE250 scintillation mixture measured. The precipitate was washed 3 times with 5 ml of 5% cold TCA and 5 ml of 70% ethanol. The filters were then dried and the radioactivity measured in plastic counting vials containing 5 ml of scintillation mixture (NE 250) in a Tricarb Packard scintillation spectrophotometer.

[2] = tested on: yeast RNA; experiment: Photobinding to yeast RNA in vivo (radiolabelled drug plus 365 nm light); type: binding, Saccharomyces cerevisiae; conditions: for cpm for 10^8 cells: RNA; for Molecules 3-CPs/μg DNA / μg 3-CPs/μg DNA: binding to RNA
Description: as §1, §2, §3

[3] = tested on: calf thymus DNA; experiment: Photobinding to native calf thymus DNA in vitro; type: binding; conditions: for cpm/μg DNA / μg 3-CPs/μg DNA: 6 × 10^-5 M
Description: These determinations were done in vitro and in vivo. […] The thickness of the irradiated sample was 1 mm. After irradiation, the solution was diluted by a factor of 2, and NaCl was added to a final concentration of 1 M. The DNA was precipitated with 2 volumes of cold pure ethanol. The samples were left overnight in the cold at -20° C. The precipitate was then washed by centrifugation three times with 3 ml of 70% ethanol and redissolved in 3 ml of water. The DNA recovery was checked by determination of the optical density of the solution at 260 nm.

[4] = tested on: yeast DNA; experiment: Melting and reassociation (cross-link formation) of yeast DNA treated in vitro plus 365 nm light; type: biochemical
Description: Measurement of the melting and reassociation characteristics of yeast DNA:
Biophys. […] The fractions containing the nuclear DNA were pooled and dialysed against a 0.1 M, pH 7 phosphate buffer. […] Unirradiated samples of DNA with or without the drugs were taken as references.
The cross-links formation of the two furocoumarins with native yeast DNA was tested by measuring the denaturation and renaturation pattern.

[5] = tested on: Saccharomyces cerevisiae
Description: (§4) A wild-type strain 211-1aM (29) of Saccharomyces cerivisiae was used, and the following mutants derived from it: S24-12c rad2-20 deficient in excision repair and S25-13b rad9-4 likely to be blocked in a recombinational repair pathway; a double mutant S 2057NL-24 rad2-20 -rad9-4 clone B was obtained by tetrad analysis of a heterozygote [formula]
(§5) The media and culture conditions used were as described in D. Averbeck, E. Moustacchi, (1975) Biochim. Biophys. Acta, 395, 393-404.
(§6) 10^6 cells/ml in saline (0.9% NaCl) were treated for 30 minutes with the drugs at a final concentration of 10 μg/ml and 1.2% ethanol present.
(§7) A Philips HPW 125 culot Edison high pressure mercury lamp was used with maximal output at the wavelength 365 nm. The irradiation dose measured by actinometry was 10 J/m^2 per sec., using the following set up: 10 ml of actinometer solution (or the cell suspension, usually 1×10^6 cells/ml), stirred continuously by a magnetic stirrer, were irradiated at room temperature in an open Petri dish of 10 cm diameter at a distance of 10 cm from the center of the light bulb which was mounted horizontally. A 2 mm thick pyrex glass sheet (20×25 cm) was placed in the center of the light beam to cut out UV light of wavelength below 340 nm. Overheating was prevented either by a continuous flow of compressed air between the light bulb and the glass or by a pyrex glass water filter of 3 cm total thickness. An accumulative irradiation dose was given to the same sample. After each dose 0.1 ml of irradiated cell suspension was taken, diluted and aliquots plated.

[6] = tested on: Saccharomyces cerevisiae; experiment: Induction of cytoplasmic "petite" mutations in yeast; conditions: compared at the same survival level (10%)
Description: as §4, §5, §6
as §7, with “Overheating was prevented either by a continuous flow of compressed air between the light bulb and the glass or by a pyrex glass water filter of 3 cm total thickness. An accumulative irradiation dose was given to the same sample. After each dose 0.1 ml of irradiated cell suspension was taken, diluted and aliquots plated.” left out

[7] = tested on: Saccharomyces cerevisiae; experiment: Repair of photoinduced lesions in yeast (repair mutants, agar holding); type: cell-based
Source text: Biophys. Acta, 395, 393-404.
Consequently, it appears that the excision repair pathway in wild type and rad9-4 cells is essential in AHR for both compounds.

[8] = 5 min, 6.3 × 10^4 ergs.mm^-2 365 nm
[9] = 10 min, 12.6 × 10^4 ergs.mm^-2 365 nm
[10] = 15 min, 18.9 × 10^4 ergs.mm^-2 365 nm
[11] = 20 min, 25.2 × 10^4 ergs.mm^-2 365 nm
[12] = 30 min, 38.8 × 10^4 ergs.mm^-2 365 nm
[13] = 40 min, 50.4 × 10^4 ergs.mm^-2 365 nm
[14] = 60 min, 75.6 × 10^4 ergs.mm^-2 365 nm
[15] = 30 min, 37.8 × 10^4 ergs.mm^-2 365 nm
[16] = 15 min, 18.9 × 10^4 ergs. mm^-2 365 nm
[17] = 30 min, 37.8 × 10^4 ergs. mm^-2 365 nm
[18] = 45 min, 56.7 × 10^4 ergs. mm^-2 365 nm
[19] = 60 min, 75.6 × 10^4 ergs. mm^-2 365 nm

Structure (SMILES): CCOC(=O)c1cc2cc3ccoc3cc2oc1=O [Example 3-CPs, 3-carboethoxypsoralen]
- Molecules 3-CPs/μg DNA ([1]; 5-60 min, no 365 nm light): 0.012 Molecules 3-CPs/μg DNA × 10^14
- cpm for 10^8 cells ([1]; 5-60 min, no 365 nm light): 67.75 cpm for 10^8 cells
- μg 3-CPs/μg DNA ([1]; 5-60 min, no 365 nm light): 0.05 μg 3-CPs/μg DNA × 10^-2
- molecules linked to DNA per cell ([1]; 18.9×10^3 J/m^2, 5×10^-5 M): 10.5×10^6 molecules per cell
- binding ratio: pyrimidine bases per 1 bound molecule ([1]; 18.9×10^3 J/m^2, 5×10^-5 M, on average): 2 pyrimidine bases
- Molecules 3-CPs/μg DNA [1, 8]: 0.92 Molecules 3-CPs/μg DNA × 10^14
- cpm for 10^8 cells [1, 8]: 5030.5 cpm for 10^8 cells
- μg 3-CPs/μg DNA [1, 8]: 3.9 μg 3-CPs/μg DNA × 10^-2
- binding to DNA in vivo compared with in vitro ([1]; 365 nm light): higher in the in vivo condition than in vitro
- Molecules 3-CPs/μg DNA [1, 9]: 1.34 Molecules 3-CPs/μg DNA × 10^14
- cpm for 10^8 cells [1, 9]: 9409 cpm for 10^8 cells
- μg 3-CPs/μg DNA [1, 9]: 5.7 μg 3-CPs/μg DNA × 10^-2
- Molecules 3-CPs/μg DNA [1, 10]: 2.1 Molecules 3-CPs/μg DNA × 10^14
- cpm for 10^8 cells [1, 10]: 11386.5 cpm for 10^8 cells
- μg 3-CPs/μg DNA [1, 10]: 9 μg 3-CPs/μg DNA × 10^-2
- Molecules 3-CPs/μg DNA [1, 11]: 2.8 Molecules 3-CPs/μg DNA × 10^14
- cpm for 10^8 cells [1, 11]: 15650.2 cpm for 10^8 cells
- μg 3-CPs/μg DNA [1, 11]: 12.3 μg 3-CPs/μg DNA × 10^-2
- Molecules 3-CPs/μg DNA [1, 12]: 2.8 Molecules 3-CPs/μg DNA × 10^14
- cpm for 10^8 cells [1, 12]: 15307 cpm for 10^8 cells
- μg 3-CPs/μg DNA [1, 12]: 12 μg 3-CPs/μg DNA × 10^-2
- Molecules 3-CPs/μg DNA [1, 13]: 2.6 Molecules 3-CPs/μg DNA × 10^14
- cpm for 10^8 cells [1, 13]: 14248 cpm for 10^8 cells
- μg 3-CPs/μg DNA [1, 13]: 11 μg 3-CPs/μg DNA × 10^-2
- Molecules 3-CPs/μg DNA [1, 14]: 2.3 Molecules 3-CPs/μg DNA × 10^14
- cpm for 10^8 cells [1, 14]: 16476 cpm for 10^8 cells
- μg 3-CPs/μg DNA [1, 14]: 10 μg 3-CPs/μg DNA × 10^-2
- dark binding with DNA relative to that at lowest dose of irradiation ([1]; dark, 50 minutes): around 10%
- 365 nm light dose up to which binding with DNA increases linearly, then levels off ([1]; in vivo): up to 25.2×10^3 J/m^2
- amount linked to DNA compared with RNA per cell ([1]; in vivo): about the same as that bound to RNA per cell
- amount linked to DNA relative to 8-MOP ([1]; in vivo): about 15 times more
- binding to DNA compared with 8-MOP ([1]; in vivo): binds to DNA much more efficiently than 8-MOP
- difference in photoreactivity with DNA in vivo, 3-CPs vs 8-MOP ([1]; in vivo): 15 factor
- difference in photoreactivity with DNA, 3-CPs vs 8-MOP ([1]; in vivo): ≤ 20 factor
- photoaffinity to DNA compared with RNA ([1]; molecular basis): much higher than to RNA
- photoaffinity for RNA [2]: relatively low photoaffinity for RNA
- cpm for 10^8 cells ([2]; 5-60 min, no 365 nm light): 1285 cpm for 10^8 cells
- cpm for 10^8 cells [2, 8]: 7130 cpm for 10^8 cells
- cpm for 10^8 cells [2, 9]: 11040 cpm for 10^8 cells
- cpm for 10^8 cells [2, 10]: 14170 cpm for 10^8 cells
- cpm for 10^8 cells [2, 11]: 18780 cpm for 10^8 cells
- cpm for 10^8 cells [2, 15]: 25380 cpm for 10^8 cells
- cpm for 10^8 cells [2, 13]: 29240 cpm for 10^8 cells
- cpm for 10^8 cells [2, 14]: 31730 cpm for 10^8 cells
- Molecules 3-CPs/μg DNA ([2]; 5-60 min, no 365 nm light): 0.0023 Molecules 3-CPs/μg DNA × 10^14
- μg 3-CPs/μg DNA ([2]; 5-60 min, no 365 nm light): 0.01 μg 3-CPs/μg DNA × 10^-2
- Molecules 3-CPs/μg DNA [2, 8]: 0.0130 Molecules 3-CPs/μg DNA × 10^14
- μg 3-CPs/μg DNA [2, 8]: 0.056 μg 3-CPs/μg DNA × 10^-2
- Molecules 3-CPs/μg DNA [2, 9]: 0.020 Molecules 3-CPs/μg DNA × 10^14
- μg 3-CPs/μg DNA [2, 9]: 0.086 μg 3-CPs/μg DNA × 10^-2
- Molecules 3-CPs/μg DNA [2, 10]: 0.026 Molecules 3-CPs/μg DNA × 10^14
- μg 3-CPs/μg DNA [2, 10]: 0.11 μg 3-CPs/μg DNA × 10^-2
- Molecules 3-CPs/μg DNA [2, 11]: 0.034 Molecules 3-CPs/μg DNA × 10^14
- μg 3-CPs/μg DNA [2, 11]: 0.15 μg 3-CPs/μg DNA × 10^-2
- Molecules 3-CPs/μg DNA [2, 15]: 0.046 Molecules 3-CPs/μg DNA × 10^14
- μg 3-CPs/μg DNA [2, 15]: 0.20 μg 3-CPs/μg DNA × 10^-2
- Molecules 3-CPs/μg DNA [2, 13]: 0.053 Molecules 3-CPs/μg DNA × 10^14
- μg 3-CPs/μg DNA [2, 13]: 0.23 μg 3-CPs/μg DNA × 10^-2
- Molecules 3-CPs/μg DNA [2, 14]: 0.058 Molecules 3-CPs/μg DNA × 10^14
- μg 3-CPs/μg DNA [2, 14]: 0.25 μg 3-CPs/μg DNA × 10^-2
- dark binding with RNA relative to that at lowest dose of irradiation ([2]; dark, 50 minutes): 20%
- 365 nm light dose up to which binding with RNA increases linearly, then levels off ([2]; in vivo): up to 25.2×10^3 J/m^2
- difference in photoreactivity with RNA, 3-CPs vs 8-MOP ([2]; in vivo): 3.4 factor
- cpm/μg DNA ([3]; 0-60 min incubation (dark)): 0.21 cpm/μg DNA
- μg 3-CPs/μg DNA ([3]; 0-60 min incubation (dark)): 0.009×10^-3 μg 3-CPs/μg DNA
- cpm/μg DNA [3, 16]: 3.29 cpm/μg DNA
- μg 3-CPs/μg DNA [3, 16]: 0.14×10^-3 μg 3-CPs/μg DNA
- cpm/μg DNA [3, 17]: 4.25 cpm/μg DNA
- μg 3-CPs/μg DNA [3, 17]: 0.18×10^-3 μg 3-CPs/μg DNA
- cpm/μg DNA [3, 18]: 4.30 cpm/μg DNA
- μg 3-CPs/μg DNA [3, 18]: 0.18×10^-3 μg 3-CPs/μg DNA
- cpm/μg DNA [3, 19]: 3.10 cpm/μg DNA
- μg 3-CPs/μg DNA [3, 19]: 0.13×10^-3 μg 3-CPs/μg DNA
- dose of 365 nm light up to which binding increases rapidly ([3]; in vitro): up to 3780 J/m^2
- difference in photoreactivity with DNA in vitro, 3-CPs vs 8-MOP ([3]; in vitro (table 3)): 4.8 factor
- photoreactivity with native DNA, times lower than 8-MOP ([3]; initial part of the photoreaction): about 5 times
- reassociation of DNA after heat denaturation [4]: such a reassociation was not found
- cross-links in DNA ([4]; dose range used): does not induce cross-links in DNA; also recorded: absence of cross-link formation
- difference in survival response, 3-CPs vs 8-MOP [5]: 6 factor
- dose-modifying factor for rad9-4 compared to wild type [5]: constant
- photobiological activity after previous exposure to light [5]: decline in the photobiological activity
- resistance to the killing effect compared with 8-MOP [5]: much higher than that expected from the photoreactivity
- shape of survival curve [5]: exponential survival curve
- survival level compared with 8-MOP [5]: still relatively high as compared to that for 8-MOP
- survivors ([5]; saline, 5 min): 10^-1
- concentration versus 365 nm light dose, log-log plot at given survival ([5]; wild type and rad9-4): follows a linear function
- reciprocity between light dose and drug concentration for cell killing ([5]; wild type and rad9-4): no reciprocity between the light dose and the drug concentration
- induction of cytoplasmic "petite" mutations [6]: the most reactive compound
- dark repair by strain defective in excision ([7]; agar holding): unable to perform a dark repair
- repair by strain defective in recombination ([7]; agar holding): reduced capacity to repair
- interaction between rad2 and rad9 repair pathways ([7]; plus 365 nm light): synergistic interaction
- kinetics of agar holding recovery (AHR) ([7]; wild-type cells): same kinetics of AHR
